Measurements reported in PubChem BioAssay (NCI).
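All cell lines were grown in 96-well plates and treated with compound for 48 hours. Definition used: TGI = concentration required for complete inhibition of growth.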

Legend:
Experiment in all cases: NCI tumour cell line growth inhibition, 48 h
786-0 renal = test system: 786-0 renal
A498 renal = test system: A498 renal
A549 NSCLC = test system: A549 NSCLC
ACHN renal = test system: ACHN renal
BT-549 breast = test system: BT-549 breast
CAKI-1 renal = test system: CAKI-1 renal
CCRF-CEM leukemia = test system: CCRF-CEM leukemia
COLO 205 colon = test system: COLO 205 colon
DU-145 prostate = test system: DU-145 prostate
EKVX NSCLC = test system: EKVX NSCLC
HCC-2998 colon = test system: HCC-2998 colon
HCT-116 colon = test system: HCT-116 colon
HCT-15 colon = test system: HCT-15 colon
HL-60(TB) leukemia = test system: HL-60(TB) leukemia
HOP-62 NSCLC = test system: HOP-62 NSCLC
HOP-92 NSCLC = test system: HOP-92 NSCLC
HS 578T breast = test system: HS 578T breast
HT29 colon = test system: HT29 colon
IGROV1 ovarian = test system: IGROV1 ovarian
K-562 leukemia = test system: K-562 leukemia
KM12 colon = test system: KM12 colon
LOX IMVI melanoma = test system: LOX IMVI melanoma
M14 melanoma = test system: M14 melanoma
MALME-3M melanoma = test system: MALME-3M melanoma
MCF7 breast = test system: MCF7 breast
MDA-MB-231 breast = test system: MDA-MB-231 breast
MDA-MB-435 = test system: MDA-MB-435
MDA-N = test system: MDA-N
NCI-H23 lung = test system: NCI-H23 lung
NCI-H460 lung = test system: NCI-H460 lung
NCI-H522 lung = test system: NCI-H522 lung
NCI/ADR-RES ovarian = test system: NCI/ADR-RES ovarian
OVCAR-3 ovarian = test system: OVCAR-3 ovarian
OVCAR-4 ovarian = test system: OVCAR-4 ovarian
OVCAR-5 ovarian = test system: OVCAR-5 ovarian
PC-3 prostate = test system: PC-3 prostate
RXF 393 renal = test system: RXF 393 renal
SF-268 CNS = test system: SF-268 CNS
SF-295 CNS = test system: SF-295 CNS
SF-539 CNS = test system: SF-539 CNS
SK-MEL-2 melanoma = test system: SK-MEL-2 melanoma
SK-MEL-28 melanoma = test system: SK-MEL-28 melanoma
SK-MEL-5 melanoma = test system: SK-MEL-5 melanoma
SK-OV-3 ovarian = test system: SK-OV-3 ovarian
SN12C renal = test system: SN12C renal
SNB-19 CNS = test system: SNB-19 CNS
SNB-75 CNS = test system: SNB-75 CNS
SR leukemia = test system: SR leukemia
SW-620 colon = test system: SW-620 colon
T-47D breast = test system: T-47D breast
TK-10 renal = test system: TK-10 renal
U251 CNS = test system: U251 CNS
UACC-257 melanoma = test system: UACC-257 melanoma
UACC-62 melanoma = test system: UACC-62 melanoma
UO-31 renal = test system: UO-31 renal

Measured: TGI

CC1(C)N=C(N)N=C(N)N1c1cccc(Cl)c1
> 100 µM: 786-0 renal | A498 renal | A549 NSCLC | ACHN renal | BT-549 breast | CAKI-1 renal | CCRF-CEM leukemia | COLO 205 colon | DU-145 prostate | EKVX NSCLC | HCC-2998 colon | HCT-116 colon | HCT-15 colon | HL-60(TB) leukemia | HOP-62 NSCLC | HOP-92 NSCLC | HS 578T breast | HT29 colon | IGROV1 ovarian | K-562 leukemia | KM12 colon | LOX IMVI melanoma | M14 melanoma | MALME-3M melanoma | MCF7 breast | MDA-MB-231 breast | MDA-MB-435 | MDA-N | NCI-H23 lung | NCI-H460 lung | NCI-H522 lung | NCI/ADR-RES ovarian | OVCAR-3 ovarian | OVCAR-4 ovarian | OVCAR-5 ovarian | PC-3 prostate | RXF 393 renal | SF-268 CNS | SF-295 CNS | SF-539 CNS | SK-MEL-2 melanoma | SK-MEL-28 melanoma | SK-MEL-5 melanoma | SK-OV-3 ovarian | SN12C renal | SNB-19 CNS | SNB-75 CNS | SR leukemia | SW-620 colon | T-47D breast | TK-10 renal | U251 CNS | UACC-257 melanoma | UACC-62 melanoma | UO-31 renal
